This is an account of results in article PMC5593639, “NSC30049 inhibits Chk1 pathway in 5-FU-resistant CRC bulk and stem cell populations” (Oncotarget, 2017).

The test system of data set [1] is human immunodeficiency virus (HIV) strain 1(RF). More on the design: method as in http://dtp.cancer.gov/dtpstandard/AIDSData/index.jsp. The note with it: ref http://dtp.cancer.gov/dtpstandard/AIDSData/index.jsp; cited from earlier work.
Another data set can be described thus: Solubility in water. Type of data set: physicochemical.
The next data set relates to HCT-116 cells. The data set can be described thus: Cell survival (MTT assay), HCT-116. Format: cell-based, human. The following applies: for IC50: Homo sapiens, HCT-116, 48 h; for cytotoxic effect: 48 h. How it is done:
(§1) The survival of cells was determined by MTT (3-(4,5-Dimethylthiazol-2yl-)-2,5-diphenyl tetrazolium bromide) assay (ATCC, Manassas, VA, USA). In principle, the viable cell number is directly proportional to the purple formazan color of the reduced MTT dye, which can be quantitatively measured by spectrophotometry. Briefly, 1,500 cells were plated in quadruplets in 96-well flat-bottom tissue culture plates. After treatment with compounds for certain periods as described in respective figure legends, 10 μl of MTT reagent was added to each well and incubated at 37°C for 4 h to allow the formation of purple color crystals of formazan. In total, 100 μl of detergent solution was added to each well, and the reaction mixture was incubated in dark for 2–4 h at room temperature. The developed color density was then measured spectrophotometrically at 570 nm using the POLARstar Omega micro-plate reader (BMG Labtech, Inc., Cary, NC, USA).

A further data set has as its system LS174T cells. The data set can be described thus: Cell survival (MTT assay), LS174T. Format: cell-based. The following applies: Homo sapiens, drug alone, 48 h. Here is the method:
as §1

The subject of a further data set is RKO cells. The data set can be described thus: Cell survival (MTT assay), RKO. The following applies: Homo sapiens, drug alone, 48 h. Type of data set: cell-based. How it is done: as §1
For a further data set, the system named is CA2 CRC stem cell line. The data set can be described thus: Spheroid (sphere) formation assay. Type of data set: cell-based. The following applies: Homo sapiens; drug alone, seventh day. How it is done: Live CA2 cells (100) were seeded in 384-well ultra-low attachment plates. Next, day cells were treated with different concentrations of NSC49L and 5-FU either alone or in combination. Cells were incubated for 7 days and the number of spheroids were counted in control and treated groups under an Olympus inverted microscope with a 10× magnification.

A further data set has as its system SW480 cells. The data set can be described thus: Cell survival (MTT assay), SW480. Format: cell-based. The note with it: Homo sapiens, drug alone, 48 h. How it is done:
as §1

The subject of data set [2] is HCoEpiC normal colonic epithelial cell line. The data set can be described thus: Cell survival (MTT assay), HCoEpiC. Type of data set: cell-based. The following applies: Homo sapiens, drug alone, 48 h. How it is done:
as §1

On the set-up of data set [3]: method as in PMID 20482808. The following applies: cited from earlier work.
Data set [4] concerns human-derived CRC stem cell tumors. The data set can be described thus: Patient-derived tumor xenograft (PDTX) of CRC stem cell tumors. Format: in vivo, female SCID mice. The note with it: 20 mg/kg body weight 5-FU every day, 30 days. How it is done:
With the pharmacokinetics analysis and MTD data in hand, we determined the efficacy of NSC49L and 5-FU alone and in combination for the growth of human-derived CRC stem cell tumors in vivo. CRC stem cells were isolated and characterized from the freshly resected human CRC tumor. One thousands of these CRC stem cells were injected subcutaneously into the right flank of the four 5-week old female SCID mice. After 20 days the first generation tumors (F0) of approximately 2,000 mm^3 in size were harvested. They were divided into four equal pieces and implanted under the skin of the female SCID mice for the growth of second generation tumors (F1) for testing the drug efficacy studies. We divided the F1 tumor bearing mice into four groups and treated them every day subcutaneously with drugs as follows: i) PBS control, (ii) 50 mg/kg body weight NSC49L, (iii) 20 mg/kg body weight 5-FU, and iv) 50 and 20 mg/kg body weight NSC49L and 5-FU, respectively, for 30 days. The treatment with drugs began after 10 days of tumor growth. The body weight and tumor volumes were recorded twice a weak. The experiment was terminated on the 32nd day.

For the next data set, the system named is LoVo cells. The data set can be described thus: Cell survival (MTT assay), LoVo. Type of data set: cell-based. The following applies: Homo sapiens, drug alone, 48 h. Here is the method: as §1
Data set [5] relates to Chk1 phosphorylation in HCT-116 cells. The data set can be described thus: Western blot of total and phosphorylated Chk1, HCT-116. Format: cell-based, human. The following applies: 5-FU alone, 24 h. How it is done: (§2) The levels of various proteins were determined by Western blot analysis with our previously described procedure. The antibodies for phospho-Chk1(Ser317), phospho-Chk1(Ser317), phospho-Chk1(Ser319), phospho-Chk1(Ser345), Chk1, and GAPDH were purchased from Cell Signaling Technology (Danvers, MA, USA).

Data set [6] concerns ALDH1, KLF4, Nanog, Oct4, Sox2, c-Myc mRNA in CA2 cells. The data set can be described thus: Stem cell marker and self-renewal gene mRNA levels by qRT-PCR. Format: cell-based, human. The following applies: drug alone, 72 h, normalized with GAPDH. Here is the method:
Total RNA was isolated from control and treated cells with RNAzol reagent (Invitogen, Carlsbad, CA, USA). The expression of mRNA levels of stemness genes was determined by qRT-PCR using Bio-Rad CFX96 Real Time System C1000 Thermal Cycler. The primers used for amplification of mRNA levels of genes were from Celprogen, Inc., as shown here with their Gene Bank accession and catalog numbers: ALDHA1 (NM_000689, Cat. No. CepALDHA1-02), Klf4 (NM_004235, Cat No. CepKlf4-02), Nanog (NM_024865, Cat. No. CepNanog-02), Oct4 (NM_002701, Cat No. CepOct4-02), Sox2 (NM_003106, Cat. No. CepSox2-02), c-Myc (NM_002467, Cat. No. Cepc-Myc-02) and GAPDH (NM_002046, Cat. No. Cep-GAPDH-02).

The test system of the next data set is HCT116(p53−/−) cells. The data set can be described thus: MTT assay, IC50 of HU, HCT116(p53−/−). Type of data set: cell-based, human. The following applies: 72 h, compared with HCT116(p53+/+) cells. How it is done: as §1
Another data set relates to HT29 cells. The data set can be described thus: Cell cycle profile by FACS. Type of data set: cell-based, human. The following applies: 2 mM HU 24 h. Here is the method: For determining the cell cycle profile, cells were plated in 60 mm tissue culture dishes and grown until 60% confluence. […] After treatment, cells were harvested at different time intervals, washed with ice-cold PBS and processed for FACS analysis as described previously. The ranges for G0/G1, S, and G2/M phase arrested and sub-G1 apoptotic cells were established on the basis of the corresponding DNA content of the histograms. At minimum, 10,000 cells were counted from each sample.

Data set [7] relates to Chk1 phosphorylation in HT29 cells. The data set can be described thus: Western blot of total and phosphorylated Chk1, HT29. The following applies: 2 mM HU 24 h. Type of data set: cell-based, human. Here is the method: as §2

As for `ClCC=CC[N+]12CN3CN(CN(C3)C1)C2` [NSC30049, 1-(4-Chloro-2-butenyl)-1λ∼5∼,3,5,7-tetraazatricyclo [3.3.1.1∼3,7∼] decane], in data set [1], the “Activity against HIV” value is “inactive”. Further, the Solubility in water result in “Solubility in water” is recorded as “readily soluble in water”.

In the data set on HCT-116 cells (MTT assay, Figure 1B, three experiments), `ClC/C=C\C[N+]12CN3CN(CN(C3)C1)C2` [c-NSC30049] yielded an IC50 of 7.2 µM.

Consider `CC[N+](CC)(CC)CC=CCCl.[Cl-]` [CBTA, (4-Chloro-but-2-enyl)triethylammonium chloride, reference compound], for which, in the data set with HCT-116 cells (MTT assay, Figure 1B), the cytotoxic effect entry is on record as “very little cytotoxic effect”.

As for `O=c1[nH]cc(F)c(=O)[nH]1` [5-FU, 5-fluorouracil], the IC50 in the data set on LS174T cells is 51 ± 3.8 µM; in the data set with RKO cells, 68 ± 10.4 µM; with CA2 CRC stem cell line it was 7.5 µM; in the data set with SW480 cells, 113 ± 6 µM; in data set [2] it was 513 ± 22 µM; in the data set with HCT-116 cells (drug alone, MTT, Table 1, four estimations) it was 11.5 ± 1.5 µM. This molecule also came in with an IC50 in the data set on LoVo cells of 22 ± 0.9 µM. Besides, the “AUC (bioavailability)” value in data set [3] is 59710 ± 10580 ng·h/mL. For the same molecule, the t1/2 in data set [3] is 12.6 ± 3.6 min. The “Growth of CRC stem cell tumors” value in data set [4] is “initially appreciable; however after the 21st day of treatment growth of the tumors resumed”. Further, the “Chk1 phosphorylation (S317, S345, S296)” value in data set [5] is given as “increased phosphorylation at all three Chk1 sites”. Also, the “mRNA levels of ALDH1, KLF4, Nanog, Oct4, Sox2 and c-Myc” value in data set [6] is recorded as “decreased”.

With `NC(=O)NO` [HU, hydroxyurea, reference compound], the “IC50 of HU” value in the data set with HCT116(p53−/−) cells is “decreased”. In addition, in the data set on HT29 cells, the “Cell cycle distribution G2/M” value amounted to 19.4% and the “Cell cycle distribution S (S-phase arrest)” value turned out to be 27.7%. The “Cell cycle distribution S (S-phase arrest)” value in the data set with HT29 cells (HU withdrawn, 8 h drug-free medium) amounted to 42.4%. For the same molecule, in data set [7], the “Phosphorylation of Chk1 at S317, S345 and S296” value is given as “increased”.

`C1N2CN3CN1CN(C2)C3` [HMTA, hexamethylenetetramine, reference compound]: the cytotoxic effect result in the data set on HCT-116 cells (MTT assay, Figure 1B) is “very little cytotoxic effect”.
